Experimental data: article PMC5399447, “Neuroprotective pentapeptide CN-105 is associated with reduced sterile inflammation and improved functional outcomes in a traumatic brain injury murine model” (Scientific Reports, 2017)

Tests used:
[1] = test system: degenerating neurons in dentate gyrus of TBI mice; test: Fluoro-Jade B staining of degenerating neurons; assay type: in vivo, mouse; conditions: 0.05 mg/kg, 24 hours post-injury, 6 vehicle and 6 CN-105 mice, p < 0.00001
Protocol: To assess the effects of CN-105 on inflammation, neuronal injury and neuronal loss, immunohistochemical(IHC) staining was performed using the F4/80 antibody(a marker for mature microglia and macrophages; rat monoclonal, 1:10,000; Serotec, Raleigh, NC) and the Fluoro-Jade B stain(a marker of degenerating neurons; Histo-Chem Inc. Jefferson, AR) on days 10 and 1, respectively, after TBI. IHC was performed on separate cohorts of mice from those used in neurobehavioral tests. As previously described, mice were anesthetized, euthanized, and perfused with 30 ml phosphate-buffered saline(PBS) via transcardiac puncture. The brains were then immersed in buffered formalin overnight and saturated with 30% sucrose in buffer. Sagittal sections(40 μm) were sliced on a freezing microtome and collected in cryoprotectant solution. […]
For Fluoro-Jade B, brain sections from 12 TBI mice(6 vehicle and 6 CN-105) containing the dorsal hippocampus(5–6 sections per animal) were examined for degenerating neurons using an epifluorescence microscope(Nikon, Tokyo, Japan) with a medium band blue excitation(Nikon B-2A, 450–490 nm) filter set. […] Degenerating neurons were counted and the total number of Fluoro-Jade B-positive neurons per every eighth brain slice was recorded. […]

[2] = test system: murine closed head injury model (TBI); test: Morris Water Maze after closed head injury; assay type: in vivo, mouse
Description: The murine closed head injury model used in this study was previously described. The closed head impact results in injury to selectively vulnerable neurons in cortex and hippocampus, and is associated with vestibulomotor deficits and long term neurocognitive deficits. Although animals do lose body weight, they rapidly regain spontaneous ventilation, righting reflex, and the ability to ambulate. Briefly, 12–14 week-old C57Bl/6 J male mice(Jackson Laboratories, Bar Harbor, ME) were used. The trachea was intubated after anesthesia induction with 4.6% isoflurane and the lungs were mechanically ventilated with 1.6% isoflurane in 30% O2/70% N2. Core body temperature was maintained at 37 °C through a rectal probe. To avoid basilar skull fracture, ear bars are not used. The animal was secured in a stereotactic device in a prone position on a molded acrylic cast with surgical tape across the shoulders. The intubation tube was also secured to the acrylic cast with tape. The acrylic cast is designed to allow the mouse to have 3 mm of space below the head to allow for acceleration/decelaration of the head in this position. The head was shaved and the scalp was incised to expose the skull and identify anatomical landmarks. A concave 3-mm metallic disc was adhered to the skull immediately caudal to bregma. A 2.0-mm diameter pneumatic impactor(Air-Power Inc., High Point, NC) was used to deliver a single midline impact to the center of the disc surface. The impactor was discharged at 6.8 ± 0.2 m/second with a head displacement of 3 mm. After impact, the animals were allowed to recover spontaneous ventilation and then the tracheas were extubated. Mice were allowed free access to food and water. Sham mice were treated identically except for the absence of impact. All mice were housed in the same facility.
CN-105(Ac-VSRRR-amide) was synthesized by Polypeptide Inc.(San Diego, CA) to a purity of >99%, and was delivered in sterile normal saline. Animals were placed in a restrainer(Harvard Apparatus, Holliston, MA), and a single intravenous dose of drug(0.05 mg/kg) was administered by tail vein in a volume of 100 μL. Vehicle treated animals received intravenous injection of 100 μL of normal saline at the same time points. Animals were assigned to treatment group by a coded study identification number after injury using a paper randomization protocol. A block randomization scheme was used, so that an equal number of animals were randomized to each of the treatment groups during concurrent experiments.
As described previously the Morris Water Maze assesses spatial learning and memory by testing the ability of mice to locate a submerged platform. The mice were placed in a pool(105 cm diameter) filled with room temperature(25 °C) water made opaque with fat free powdered milk and allowed up to 90 seconds to locate the submerged platform. The mice performed four trials/day for 4 consecutive days(inter-trial interval = 30 min). The mice were introduced in varying quadrants of the pool for each trial but the location of the platform never varied. The latency to locate the platform was recorded, and the 4 trials per day were averaged. Mice were tested on days 28–31 post-injury(n = 11–12 mice per group). A probe trial was administered on day 4 of the experiment 3 hours after the last test trial was completed. For the probe trial, the platform was removed and the mice were allowed to swim freely for 60 seconds. The percent of the time the mice spent in the platform quadrant was quantified.

Ac-VSRRR-amide [CN-105]
number of Fluoro-Jade B positive neurons, dorsal hippocampus, compared to vehicle [1]: significant decrease in the number of Fluoro-Jade B positive neurons
Morris Water Maze latency to platform compared to vehicle ([2]; 0.05 mg/kg iv 2 h after TBI, days 28-31, p = 0.036): significantly reduced time to escape to the platform
Morris Water Maze probe trial compared to vehicle ([2]; 0.05 mg/kg iv 2 h after TBI, p = 0.0079): performed better on the probe trial
Morris Water Maze swim speed compared to vehicle ([2]; 0.05 mg/kg iv 2 h after TBI, p = 0.4968): no difference in swim speed
Morris Water Maze neurocognitive performance compared to vehicle ([2]; 0.05 mg/kg iv 4 hours post-injury): reduced deficit on Morris Water Maze testing
Morris Water Maze probe trial compared to vehicle ([2]; 0.05 mg/kg iv 4 hours post-injury, p = 0.0211): performed better on the probe trial
Morris Water Maze swim speed compared to vehicle ([2]; 0.05 mg/kg iv 4 hours post-injury, p = 0.0567): no significant difference in swim speed
